# Laboratory results published in patent US7169785B2, “Methods and compositions of novel triazine compounds” (Reddy US Therapeutics, Inc., priority 2001, dated 2007).
# Where two headings read alike, the source gives them in different places.
# Key:
# [1] = tested on: HAEC; assay: Toxicity to endothelial cells (HAEC) when TNF stimulated; type: cell-based
# Method: (§1) Human aortic endothelial cells (HAEC, Clonetics) were cultured according to manufacturer in growth medium (Clonetics): basal medium containing human epidermal growth factor, hydrocortisone, vascular endothelial growth factor, heparin binding growth factor-B, long R3-insulin-like growth factor-1, ascorbic acid, gentamicin/amphotericin and 5% FBS. These cell were allowed to reach at least 90% confluency before subjected to experimental treatments. Glycated human serum albumin (G-HSA) was from US Biologicals. Tumor necrosis factor α was from R&D Systems.
# […] All treatments, compound-added and controls were carried out in serum free media containing 0.2% albumin. Media from all conditions were collected and used for IL-6 ELISA.
# [2] = tested on: IL-6; assay: TNF-α-induced IL-6 production determined by IL-6 ELISA in HAEC; type: cell-based, human; conditions: for activity at 10 µM / activity at 5 µM: Homo sapiens, 24 h; for Inhibition of TNF-induced IL6 production: class of % of control IL6 production
# [3] = tested on: Human aortic smooth muscle cells; assay: Smooth muscle cell proliferation assay (anti-proliferation assay, perlecan); type: cell-based; conditions: Homo sapiens, anti-proliferation assay (perlecan)
# Method: Human aortic smooth muscle cells (Clonetics) were used. Cells were grown in basal medium containing 5% fetal bovine serum supplemented with growth factors, basic fibroblast growth factor, epidermal growth factor and insulin. […] The cells were then serum starved for 24 h to induce quiescence. Fresh growth medium containing no compound or 10 μM compound was then added and further incubated for 24 h. Cell number was determined by using a cell proliferation assay kit (Celltiter96 AQueous from Promega).
# [4] = tested on: heparanase; assay: Induction and measurement of endothelial heparanase protein (TNF-induced heparanase secretion); type: cell-based, human; conditions: for inhibition at 5 µM / inhibition at 10 µM: Homo sapiens; for Relative Activity: inhibition of TNF-induced heparanase secretion, scale at 5 uM compound concentration
# Method: Experiments were carried out on human microvascular endothelial cells (HMVEC) grown in 48-well plates (˜90% confluency). To induce heparanase activity, culture media was replaced with 200 μl Dulbecco's Modified Eagle's medium (DMEM) complemented with 1% bovine serum albumin (BSA) and with or without stimulants (5 ng/ml TGF-alpha, 1 ng/ml IL 1alpha, 200 ng/ml VEGF or other stimulants, cytokines, or inducers as required). The secreted proteins were analyzed by SDS/PAGE and heparanase protein was detected by immunoblotting using polyclonal anti-human heparanase antibody. The changes of heparanase expression determined by densitometric analysis. The induction and measurement of endothelial heparanase protein reported in the Tables herein were carried out according to this Example.
# [5] = tested on: IL-6; assay: AGE (G-HSA)-induced inflammatory response determined by IL-6 ELISA in HAEC; type: cell-based, human; conditions: for activity at 10 µM: 24 h, IL6, read-out: % IL6 production compare to AGE stimulation of IL6 (100%); for IC50: IL6, unit inferred, read-out: IC50 (AGE stimulation of IL6)
# How it was run: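 Human aortic endothelial cells grown to ≥90% confluence, then treated with compounds and stimuli in serum-free medium with 0.2% albumin. Secreted IL-6 in collected media measured by sandwich ELISA (2 ug/ml capture, 200 ng/ml biotinylated detection antibody, streptavidin-HRP), read at 450 nm.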
# [6] = tested on: endothelial cells; assay: Toxicity to endothelial cells when AGE stimulated; type: cell-based, human
# Method: as §1, with “Glycated human serum albumin (G-HSA) was from US Biologicals.” left out
# All treatments, compound-added and controls were carried out in serum free media containing 0.2% albumin. Media from all conditions were collected and used for IL-6 ELISA.
# [7] = Compds tested @ 10 uM, HAEC, IL6, read-out: % IL6 production compare to TNF stimulation of IL6 (100%)
# [8] = Homo sapiens, Compds tested @ 10 uM
# [9] = endothelial cells, AGE stimulated
# [10] = HAEC, @ 5 uM, read-out: % IL6 production compare to TNF stimulation of IL6 (100%)
structure (smiles),measurement,setting,value
"CCN(CC)c1ccc(Nc2nc(NCC3CCCN3CC)nc(NC3CCCCCC3)n2)cc1Cl (centres unmarked) [Compound 26, N^2-[3-chloro-4-(diethylamino)phenyl]-N^4-cycloheptyl-N^6-[(1-ethyl-2-pyrrolidinyl)methyl]-1,3,5-triazine-2,4,6-triamine]",cells floating,"[1]; TNF-stimulated HAEC, compound @ 10 uM",> 50%
same,activity at 10 µM,[2]; [7],1%
same,IC50,[3]; read-out: Activity (note 1),> 7 µM
same,IC50,[3]; read-out: Avg IC-50,7.73 µM
"CCN1CCCC1CNc1nc(Nc2ccccc2C)nc(NC2CCCCCC2)n1 (centres unmarked) [Compound 35, N^2-cycloheptyl-N^4-[(1-ethyl-2-pyrrolidinyl)methyl]-N^6-(2-methylphenyl)-1,3,5-triazine-2,4,6-triamine]",inhibition at 5 µM,[4],53%
same,Relative Activity,[4],++ (30–40% inhibition)
same,activity at 10 µM,[2]; [7],34%
same,activity at 10 µM,[5]; [8],4%
"CCN1CCCC1CNc1nc(Nc2ccc(OC)c(F)c2)nc(NC(C)(C)C)n1 (centres unmarked) [Compound 52, N^2-(tert-butyl)-N^4-[(1-ethyl-2-pyrrolidinyl)methyl]-N^6-(3-fluoro-4-methoxyphenyl)-1,3,5-triazine-2,4,6-triamine]",inhibition at 10 µM,[4]; @ 10 uM,40 to 60%
same,Relative Activity,[4],+ (0–30% inhibition)
same,activity at 10 µM,[2]; [7],1%
same,activity at 10 µM,[5]; [8],35%
"CCN1CCCC1CNc1nc(Nc2ccc(OC)c(F)c2)nc(N2CCCCCC2)n1 (centres unmarked) [Compound 58, N^2-[(1-ethyl-2-pyrrolidinyl)methyl]-N^4-(3-fluoro-4-methoxyphenyl)-N^6-hexahydro-1H-azepin-1-yl-1,3,5-triazine-2,4-diamine]",inhibition at 10 µM,[4]; @ 10 uM,40 to 60%
same,Relative Activity,[4],+ (0–30% inhibition)
same,activity at 10 µM,[2]; [7],1%
same,activity at 10 µM,[5]; [8],30%
CCN1CCCC1CNc1nc(Nc2ccc(OC)c(F)c2)nc(N2CCC[C@H]2COC)n1 (some centres unmarked) [Compound 61],"Activity, inhibition of TNF-induced heparanase secretion",[4]; @ 10 uM,40–60% inhibition @ 10 uM
same,Relative Activity,[4],+ (0–30% inhibition)
same,% IL6 production compare to TNF stimulation of IL6 (100%),"[2]; Compds tested @ 10 uM, HAEC, IL6",2%
same,Inhibition of TNF-induced IL6 production,[2]; HAEC,++++ (between 0 and about 25% of IL6 production compared to cells that did not receive compound (or per cent of control IL6 production))
same,% IL6 production compare to AGE stimulation of IL6 (100%),"[5]; Compds tested @ 10 uM, IL6",38%
same,IC50,[5],6.47 µM
"CCNc1nc(Nc2ccc(OC)c(F)c2)nc(NC2CCCCCC2)n1 [Compound 76, N^2-cycloheptyl-N^4-ethyl-N^6-(3-fluoro-4-methoxyphenyl)-1,3,5-triazine-2,4,6-triamine]",inhibition at 5 µM,[4],50%
same,Relative Activity,[4],++ (30–40% inhibition)
same,activity at 10 µM,[2]; [7],18%
"COc1ccc(Nc2nc(NC3CCCCCC3)nc(N3CCCC3)n2)cc1F [Compound 82, N^2-cycloheptyl-N^4-(3-fluoro-4-methoxyphenyl)-6-(1-pyrrolidinyl)-1,3,5-triazine-2,4-diamine]",inhibition at 5 µM,[4],73%
same,Relative Activity,[4],+++ (70–100% inhibition)
same,activity at 10 µM,[2]; [7],34%
"COc1ccc(Nc2nc(NC3CCCCCC3)nc(N3CCN(C)CC3)n2)cc1F [Compound 87, N^2-cycloheptyl-N^4-(3-fluoro-4-methoxyphenyl)-6-(4-methyl-1-piperazinyl)-1,3,5-triazine-2,4-diamine]",inhibition at 10 µM,[4]; @ 10 uM,40 to 60%
same,Relative Activity,[4],+ (0–30% inhibition)
same,activity at 10 µM,[5]; [8],5%
"COc1ccc(Nc2nc(NC3CCCCCC3)nc(N3CCN(CC(=O)N4CCCC4)CC3)n2)cc1F [Compound 94, N^2-cycloheptyl-N^4-(3-fluoro-4-methoxyphenyl)-6-{4-[2-oxo-(1-pyrrolidinyl)ethyl]-1-piperazinyl}-1,3,5-triazine-2,4-diamine]",inhibition at 10 µM,[4]; @ 10 uM,40 to 60%
same,Relative Activity,[4],+ (0–30% inhibition)
same,activity at 10 µM,[2]; [7],32%
same,activity at 10 µM,[5]; [8],10%
same,IC50,[5]; Homo sapiens,5.8 µM
"COc1ccc(Nc2nc(NC(C)C)nc(N(C)C3CCNCC3)n2)cc1Cl [Compound 107, N^2-(3-chloro-4-methoxy-phenyl)-N^4-isopropyl-N^6-methyl-N^6-piperidin-4-yl-1,3,5-triazine-2,4,6-triamine]",melting point,,129 °C
same,Inhibition of TNF-induced IL6 production,[2]; HAEC,++ (between about 50 and about 75% of control IL6 production)
same,activity at 5 µM,"[2]; read-out: % IL6 production compare to TNF stimulation of IL6 (100%), @ 5 uM, HAEC, IL6",60%
"COc1ccc(Nc2nc(NCCCCCO)nc(N(C)C3CCNCC3)n2)cc1Cl [Compound 109, 5-[4-(3-chloro-4-methoxy-phenylamino)-6-(methyl-piperidin-4-yl-amino)-1,3,5-triazin-2-ylamino]-pentan-1-ol]",melting point,,101 °C
same,Inhibition of TNF-induced IL6 production,[2]; HAEC,+++ (between about 25 and about 50% of control IL6 production)
same,activity at 10 µM,"[2]; read-out: % IL6 production compare to TNF stimulation of IL6 (100%), Compds tested @ 10 uM, HAEC, IL6",40%
"COc1ccc(Nc2nc(Cl)nc(NCC3CCCCC3)n2)cc1F [Compound 125, 6-Chloro-N-cyclohexylmethyl-N′-(3-fluoro-4-methoxy-phenyl)-[1,3,5]triazine-2,4-diamine]",melting point,,156 °C
same,IC50,[3]; read-out: Activity (note 1),> 7 µM
same,IC50,[3]; read-out: Avg IC-50,10 µM
"COc1ccc(Nc2nc(NC3CCCCCC3)nc(NC3CCN(Cc4ccccc4)CC3)n2)cc1Cl [Compound 134, N-(1-benzyl-piperidin-4-yl)-N′-(3-chloro-4-methoxy-phenyl)-N″-cycloheptyl-[1,3,5]-2,4,6-triamine]",Toxic (AGE-treated),[6]; [9],toxic
same,cell death in TNF-stimulated IL6 test,"[1]; HAEC, @ 10 uM",total cell death
same,activity at 5 µM,[2]; [10],55%
"COc1ccc(Nc2nc(NC3CCCCCC3)nc(NC3CCNCC3)n2)cc1Cl [Compound 135, N^2-(3-chloro-4-methoxy-phenyl)-N^4-cycloheptyl-N^6-piperidin-4-yl-1,3,5-triazine-2,4,6-triamine]",Toxic (AGE-treated),[6]; [9],toxic
same,cell death in TNF-stimulated IL6 test,"[1]; HAEC, @ 10 uM",total cell death
same,activity at 5 µM,[2]; [10],60%
same,IC50,[3]; read-out: Activity (note 1),3 to 7 µM
same,IC50,[3]; read-out: Avg IC-50,5.83 µM
CN1CCC(N(C)c2nc(Nc3ccc(O)c(Cl)c3)nc(NC3CCCCCC3)n2)CC1 [Compound 138],Toxic (AGE-treated),[6],toxic
same,IC50,[3]; read-out: Activity (note 1),3 to 7 µM
same,IC50,[3]; read-out: Avg IC-50,4.03 µM
"COc1ccc(Nc2nc(NC3CCCCCC3)nc(N(C)C3CCNCC3)n2)cc1Cl [Compound 146, N^2-(3-chloro-4-methoxy-phenyl)-N^4-cycloheptyl-N^6-methyl-N^6-piperidin-4-yl-1,3,5-triazine-2,4,6-triamine]",melting point,,114 to 116 °C
same,IC50,[3]; read-out: Activity (note 1),< 3 µM
same,IC50,[3]; read-out: Avg IC-50,~2.2 µM
CCN1CCCC1CNc1nc(Nc2ccc(OC)c(Cl)c2)nc(NC2CN3CCC2CC3)n1 (centres unmarked) [Compound 148],Toxic (AGE-treated),[6],toxic
same,cell death in TNF-stimulated IL6 test,"[1]; human, 24 h, 10 uM",total cell death
same,activity at 5 µM,"[2]; read-out: % IL6 production compare to TNF stimulation of IL6 (100%), HAEC, @ 5 uM",60%
same,IC50,[3]; read-out: Activity (note 1),3 to 7 µM
same,IC50,[3]; read-out: Avg IC-50,< 5 µM
"COc1ccc(Nc2nc(NC3CCCCCC3)nc(N(C)C3CCNCC3)n2)cc1F [Compound 159, N^2-Cycloheptyl-N^4-(3-fluoro-4-methoxy-phenyl)-N^6-methyl-N^6piperidin-4-yl-1,3,5-triazine-2,4,6-triamine]",Toxic (AGE-treated),[6],toxic
same,cell death in TNF-stimulated IL6 test,"[1]; human, 24 h, 5 uM",total cell death @ 5 and10 uM
same,cell death in TNF-stimulated IL6 test,"[1]; human, 24 h, 10 uM",total cell death @ 5 and10 uM
same,IC50,[3]; read-out: Activity (note 1),3 to 7 µM
same,IC50,[3]; read-out: Avg IC-50,5.7 to 6.9 µM
"COc1ccc(Nc2nc(NC3CCCCCC3)nc(OCC3CCCN3)n2)cc1Cl (centres unmarked) [Compound E22, N^2-(3-chloro-4-methoxyphenyl)-N^4-cycloheptyl-6-(2-azolanylmethoxy)-1,3,5-triazine-2,4-diamine]",melting point,,84 to 86 °C
"COc1ccc(Nc2nc(NC3CCCCCC3)nc(Oc3ccccc3F)n2)cc1Cl [Compound E28, N^2-(3-chloro-4-methoxyphenyl)-N^4-cycloheptyl-6-(2-fluorophenoxy)-1,3,5-triazine-4,2-diamine]",melting point,,98 to 100 °C
